Source: paper PMC8322070, “A novel orally active HDAC6 inhibitor T-518 shows a therapeutic potential for Alzheimer’s disease and tauopathy in mice” (Scientific Reports, 2021)

Assays:
human HDAC1 = molecular target: T1, human HDAC1 (Homo sapiens, UniProt Q13547); test: HDAC enzyme assay (HDAC-Glo I/II), HDAC1; type: biochemical; settings: concentrations up to 10 μM
T1 construct: purchased SignalChem Pharmaceutical Inc
Procedure: Recombinant HDAC6, HDAC7, HDAC1 were obtained from SignalChem Pharmaceutical Inc. (Richmond, BC, Canada), and recombinant human HDAC4 was prepared at Takeda pharmaceutical company. One μL of T-518 diluted with DMSO was added to 75 μL of assay buffer (24 mM Tris–HCl (pH 7.5), 135 mM NaCl, 0.35 mM KCl, 1 mM MgCl2, 0.01% Tween 20, 0.6 mM GSH) in 384 well plates. Two μL of diluted compounds were added to 384 well plates and 2 μL of recombinant HDAC enzymes was added and then centrifuged at 1000 rpm for 10 s. The final concentrations of each HDAC enzyme were as follows, human HDAC1, 170 pM; human HDAC6, […]; human HDAC4, 68 pM; human HDAC7, 13 pM. After incubation for 60 min at room temperature, 4 μL of HDAC-Glo reagent [HDAC-Glo I/II (Promega) for HDAC6 and HDAC1, HDAC-Glo class IIa (Promega) for HDAC4 and HDAC7] was added to start the reaction. After incubation for 20 min at room temperature, the luminescence was measured by Envision plate reader (PerkinElmer, Waltham, MA, USA). For experiments under the condition of 0 min preincubation, 4 μL of HDAC-Glo reagent was added at first to the 384 well plates including diluted compounds. […] After centrifugation at 1000 rpm for 10 s. and then incubation for 20 min at room temperature, the luminescence was measured by Envision. […] The inhibitory activity of T-518 was expressed as the value of IC50. […]

[1] = test system: acetylated tubulin in hippocampus; test: In vivo pharmacodynamics: acetylated tubulin in hippocampus (ELISA); settings: 0.3–300 mg/kg orally, 4 h after administration, C57BL/6J mice
Procedure: (§1) T-518, ACY-738, Ricolinostat, and Tubastatin A were synthesized in Takeda. For in vitro cellular experiments, the compounds were solubilized with DMSO and diluted in the culture medium at the indicated concentrations. For in vivo experiments, the compound was reconstituted in 0.5% methylcellulose and administered orally at the indicated doses. After administration, mouse hippocampus was isolated and homogenized in RIPA extraction buffer (50 mM Tris–HCl, 150 mM NaCl, 1% NP-40, 0.5% sodium deoxycholate, and 0.1% SDS, pH 8.0) supplemented with protease and phosphatase inhibitor cocktail (Thermo Fischer, Waltham, MA, USA). The homogenate was centrifuged at 10,000g for 15 min and the supernatant was taken as the RIPA-soluble fraction.
Acetylated α-tubulin and total tubulin levels were measured by sandwich ELISA. Ninety six-well plates (Microlite2+, Thermo) were coated with α-tubulin capture antibody (1:100) by overnight incubation at 4 °C, washed 4 times with PBS'T, treated with blocking buffer (1% bovine serum albumin in PBS'T) at 37 °C for 2 h, and washed another 4 times with PBS’T. Cell or tissues lysate was added to the wells and plates were incubated at 37 °C for 2 h. […]

P301S tau Tg mice = test: Tau accumulation in hippocampus by RAB-RIPA-FA extraction and Western blotting; type: in vivo, mouse; settings: 3 mg/kg daily, from 6 to 9 months of age
Procedure: as §1
Cell lysate or in vivo protein samples were separated by 10% SDS-PAGE, then electrophoretically transferred to 0.45 μm poly-vinylidene difluoride membranes (Millipore). Membranes were blocked for 1 h in Blocking Reagent (TOYOBO, Osaka, Japan), probed with primary antibodies followed by labeling with HRP-coupled secondary antibodies (Amersham, Piscataway, NJ), and then visualized using chemiluminescence reagent (ECL; Amersham). Images were captured using ImageQuant LAS 4000 (GE healthcare Bio-Sciences, Marlborough, MA, USA). Quantitative densitometric analyses were conducted using ImageQuant TL (GE healthcare Bio-Sciences). […]

T1 sequence (Q13547 whole entry): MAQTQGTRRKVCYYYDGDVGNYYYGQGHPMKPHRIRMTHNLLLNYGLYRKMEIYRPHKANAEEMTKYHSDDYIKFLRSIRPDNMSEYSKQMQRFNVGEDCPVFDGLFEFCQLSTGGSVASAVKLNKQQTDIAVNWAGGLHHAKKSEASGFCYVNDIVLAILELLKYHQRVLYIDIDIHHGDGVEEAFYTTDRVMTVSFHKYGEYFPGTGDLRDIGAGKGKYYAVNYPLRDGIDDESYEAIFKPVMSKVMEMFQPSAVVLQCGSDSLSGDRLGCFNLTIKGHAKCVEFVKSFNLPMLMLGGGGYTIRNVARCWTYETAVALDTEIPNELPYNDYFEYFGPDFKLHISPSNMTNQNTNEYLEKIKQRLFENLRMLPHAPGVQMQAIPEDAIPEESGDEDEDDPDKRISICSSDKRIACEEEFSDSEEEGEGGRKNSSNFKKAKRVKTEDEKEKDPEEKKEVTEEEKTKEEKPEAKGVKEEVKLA

O=C1c2cc(-c3nnc(C(F)F)o3)cnc2CN1[C@@H]1CCCC[C@H]1NC(=O)C(F)(F)C(F)(F)F [T-518, N-[(1R,2R)-2-{3-[5-(difluoromethyl)-1,3,4-oxadiazol-2-yl]-5-oxo-5H,6H,7H-pyrrolo[3,4-b]pyridin-6-yl}cyclohexyl]-2,2,3,3,3-pentafluoropropanamide]
inhibition of human HDAC1 enzyme activity (human HDAC1): did not obviously inhibit | tubulin acetylation in hippocampi [1]: dose-dependently increased tubulin acetylation | RAB-soluble and RIPA-soluble tau fractions in hippocampus (P301S tau Tg mice): without affecting | accumulation of tau in the FA fraction (RIPA-insoluble tau) in hippocampus (P301S tau Tg mice): significantly decreased
